For four compounds, Kd results are on record in ChEMBL document CHEMBL4004820 (J Med Chem, 2017).

The target of this test is Matrix protein 2 (Influenza A virus (A/Udorn/307/1972(H3N2)), UniProt P0DOF8, S31N).

Molecules are shown by their SMILES.

As to `CCC1(N)C2CC3CC(C2)CC1C3` (centres undefined), the Kd entry is recorded as “Not Active”.
The result for `NC1C2CC3CC(C2)CC1C3` (centres undefined) reads “Not Active”; that for `CC1(N)C2CC3CC(C2)CC1C3` (centres undefined), “Not Active”; that for `NC12CC3CC(CC(C3)C1)C2` [AMANTADINE], “Not Active”.
